Patent US20250197388A1, “COMPOUNDS, PHARMACEUTICAL COMPOSITIONS AND METHODS FOR TREATING INFLAMMATORY BOWEL DISEASE” (FLAGSHIP PIONEERING INNOVATIONS VI, LLC, priority 2022, published 2025)
Entries after “also recorded” stand apart in the source; their conditions may differ.

Key:
[1] = Compound interconversion monitored by 1H-NMR in neutral aqueous buffer; format: physicochemical; conditions: 37° C. in the neutral aqueous buffer
Protocol: This examples provide the kinetics of compounds A-2 and A-3. More specifically, A-6 is a mixture of compounds A-2 and A-3 and interconvert in solutions.
In this example, A-6 was combined with […] of Na3PO4, DCl, and D2O at a pH of 7-7.5. This solution was then monitored using 1H-NMR at 37° C.
Interconversion between compounds A-2 and A-3 was seen and monitored for 5 days. See, Table 1.

Dectin-1b = molecular target: T1, Dectin-1b (Homo sapiens, UniProt Q9BXN2); assay: Dectin-1 assay, HEK-Blue Dectin-1b SEAP reporter cells stimulated with beta-glucan peptide (BGP); format: cell-based; conditions: for Activity: HEK-Blue Dectin-1b cells, compounds at 1, 10 or 30 μM for 6 hours, then BGP 30 μg/mL 16-18 hours, SEAP adjusted by cell viability
T1 construct: host or cells: HEK-Blue Dectin-1b reporter cells (HEK293-derived)
T1 sequence (Q9BXN2 1-201 isoform Q9BXN2-2): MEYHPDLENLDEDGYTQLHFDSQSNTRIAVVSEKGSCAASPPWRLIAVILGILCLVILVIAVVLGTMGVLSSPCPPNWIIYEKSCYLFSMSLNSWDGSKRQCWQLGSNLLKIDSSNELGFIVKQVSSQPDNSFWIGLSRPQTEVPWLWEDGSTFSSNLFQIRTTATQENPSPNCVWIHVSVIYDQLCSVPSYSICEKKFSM
Protocol: Compounds described herein are added to mammalian cells for bioactivity assessment. The HEK-Blue Dectin-1b cells line (InVivoGen) releases a reporter protein (secreted embryonic alkaline phosphatase, SEAP) to the culture supernatant in response to Dectin-1 activation. HEK-Blue reporter cells were grown in DMEM culture media with 10% decomplemented fetal calf serum (InvivoGen, 1% Pen/Strep antibiotic (InvivoGen), 0.2% Normocin antibiotic (InvivoGen). On the day prior to the assay, cells were seeded in a 96 flat-bottom well plate at 50,000 cells/well and further incubated for 20 hours. On the day of the assay cells were incubated with 1 μM, 10 μM or 30 μM of the compounds described herein or with 1 μM of the SYKi IV Dectin-1b Inhibitor (Millipore) or with DMSO (vehicle control) for 6 hours, followed by the addition of beta-glucan peptide (BGP, a Dectin-1 ligand at 30 μg/mL) and incubation for 16-18 hours. After incubation was concluded, the cultures supernatants were collected and Dectin-1 related activity was assessed by measurement of the SEAP-reporter protein presence, using Quanti-Blue assay (Invivogen) and these values were adjusted by the Cell Viability levels that was assessed using the Cell-Titer-Glo2 Reagent (Promega).
Results represent cell number adjusted SEAP levels in a triplicate setting for each condition and cell numbers and viability corrections reflected less than 5% corrections. See, e.g., FIG. 1 for compound A-3.

[2] = test system: Zymosan-induced production of IL-12p40 in monocyte-derived dendritic cells; assay: Monocyte derived DC (MoDC) assay, Zymosan-induced IL-12p40 (Luminex/ELISA); format: cell-based, human
Description: (§1) Monocyte derived DC (MoDC) were differentiated from healthy human donor derived CD14+ monocytes. Commercially available freshly prepared Leukopaks were obtained from healthy blood donor and kept refrigerated on ice before spin centrifuged and the pelleted cells are rinsed and resuspended with MACS buffer (Miltenyi Biotec). Next, CD14+ monocytes were purified using MultiMACS™ Cell24 Separator-Plus instrumentation and reagents according to the manufacturer (Miltenyi Biotec) instructions. The resulting purified CD14^+ cell fraction was washed, enumerated, and subsequently cryopreserved for later use. At the experiment first day cryopreserved CD14′ cells were thawed, rinsed with culture media, and then resuspended in culture media principally composed of RPMI (Invitrogen) supplemented with 10% v/v heat inactivated FBS. For generation of MoDC, these CD14^+ cells were enumerated and seeded into 75 cm^2 tissue culture flasks in 30 mL of culture media supplemented with GM-CSF (40-100 ng/mL) and IL-4 (25 ng/mL). Every other day, half of the culture media was replaced with fresh media (containing the same cytokine supplementation) and after 6-7 days of culture, fully differentiated and matured MoDC were obtained as confirmed by conventional Immuno-phenotype markers (levels of expression or absence of surface CD80, CD83, CD86, CD209, HLA-DR, CD14 & CD64) that were verified by flow-cytometry. Fully differentiated (mature) MoDCs, were seeded into 96 flat-well plates and incubated with a various concentration of the compound described herein, or with control solution (DMSO), or with the pharmacologic inhibitors Cyclosporin-A (CsA) and BAY 61-3606 (which is a known inhibitor of Syk kinase) for 6 hours. Next, the MoDC culture well were added with Dectin-1(CLEC7a1)-ligand (Zymosan at 5 μg/mL), or the Toll-like receptor agonist R848, and further incubated for 18-20 hours. After incubation concluded, culture supernatants were collected, and the levels of inflammatory cytokines and chemokines was measured in a triplicate setting for each condition by Luminex® multiplex assay (FIG. 2) or by ELISA (FIG. 3).

[3] = test system: LPS-induced IRF reporter activity; assay: IRF assay, THP-1 dual reporter cell line (Lucia luciferase) stimulated with LPS; format: cell-based; conditions: for inhibition of LPS-induced IRF reporter activity: THP-1 dual reporter cells, LPS 25 ng/mL, compounds at 1 μM or 10 μM
Protocol: Compounds described herein are added to mammalian cells for bioactivity assessment. The THP-1 dual reporter cell line (InVivoGen) secretes a reporter protein (Lucia luciferase or LUC) in response to activation by the pro-inflammatory bacterial component lipopolysaccharide (LPS). THP-1 dual reporter cells were grown in RPMI 1640 culture medium with 2 mM L-glutamine, 25 mM HEPES, 10% heat-inactivated fetal bovine serum, 100 µg/ml Normocin antibiotic (InvivoGen), Pen-Strep antibiotic (100 U/ml-100 […], InvivoGen). On the day of the assay, cells were seeded in a 96 flat-bottom well plate at 50,000 cells/well and incubated for 2 hours. Cells were then incubated with 1 μM or 10 μM of the compounds described herein or with 1 μM of KK-16 (Selleck), a potent inhibitor of IκB kinases (IKKs) or with DMSO (vehicle control) for 2 hours, followed by the addition of LPS at 25 ng/mL and incubation for 24 hours. After incubation was concluded, the cultures supernatants were collected and IRF related activity was assessed by measurement of the Lucia luciferase, using Quanti-Luc assay (InvivoGen) and these values were adjusted by the Cell Viability levels that was assessed using the Cell-Titer-Glo2 Reagent (Promega).

[4] = test system: LPS-stimulated monocyte-derived dendritic cells; assay: MoDC assay, LPS-stimulated pro-inflammatory cytokines; format: cell-based, human; conditions: for inhibition of pro-inflammatory cytokines (overall): healthy human donor 14 (FIGS. 9A-9H)
[5] = test system: R848-stimulated monocyte-derived dendritic cells; assay: MoDC assay, R848-stimulated pro-inflammatory cytokines; format: cell-based, human; conditions: for Gro-α / IL-6 / IL-12p70 / IL-23 / IP-10 / MCP-1 / Mip-1α / TNFα: healthy human donor 14; for inhibition of pro-inflammatory cytokines (overall): healthy human donor 14 (FIGS. 10A-10H)
Description: as §1

In the case of `CN1[C@@H](C(=O)O)CS[C@@H]1[C@@H]1CSC(c2ccccc2O)=N1` (single isomer, unassigned) [Compound A-2], the “time to nearly reach interconversion equilibrium” value [1] is reported as “about 3 hours”, the Activity (Dectin-1b) is reported as less than 30 µM and the “inhibition of Zymosan-induced production of IL-12p40” value ([2]; MoDC from healthy human donors 1, 2 and 3, 15.5 nM to 1 μM (FIGS. 6A-6C)) is reported as “inhibition”. For the same compound, the “concentration of maximal inhibition of Zymosan-induced IL-12p40” value ([2]; donors 1, 2 and 3, the highest concentration tested) was 1 µM.

For `CN1[C@@H](C(=O)O)CS[C@H]1[C@H]1CSC(c2ccccc2)=N1` (single isomer, unassigned) [Compound F-2], the Activity (Dectin-1b) was less than 30 µM.

In the case of `CN1C([C@@H]2CSC(c3ccccc3O)=N2)SC[C@@H]1C(=O)O` (stereo partly drawn) [Compound A6, (4S)-2-((S)-2-(2-hydroxyphenyl)-4,5-dihydrothiazol-4-yl)-3-methylthiazolidine-4-carboxylic acid], the “inhibition of LPS-induced IRF reporter activity” value [3] is reported as “shows inhibition of LPS-induced IRF reporter activity”, the “statistical significance of inhibition of LPS-induced IRF reporter activity” value ([3]; tested at 1 μM (FIG. 8B)) is reported as “meets statistical significance” and the Gro-α ([4]; healthy human donor 14) is reported as “statistically significant decrease”. The IL-6 ([4]; healthy human donor 14) was “statistically significant decrease”, the IL-12p70 ([4]; healthy human donor 14) was “statistically significant decrease” and the IL-23 ([4]; healthy human donor 14) was “statistically significant decrease”. For the same compound, the IP-10 ([4]; healthy human donor 14) was “statistically significant decrease”, the MCP-1 ([4]; healthy human donor 14) was “statistically significant decrease” and the Mip-1α ([4]; healthy human donor 14) was “statistically significant decrease”. For the same compound, the TNFα ([4]; healthy human donor 14) was “statistically significant decrease”, the “inhibition of pro-inflammatory cytokines (overall)” value (shortened to “inhibition … (overall)”) [4] was “inhibit several pro-inflammatory cytokines; also recorded: inhibition of pro-inflammatory cytokines” and the “inhibition of BGP-induced Dectin-1b reporter gene activity / signaling” value (Dectin-1b; HEK-Dectin-1b cells, range from 1 μM to 30 μM) was “dose-dependent inhibition”. For the same compound, the “concentration of maximal inhibition of BGP-induced Dectin-1b activity” value (Dectin-1b; range 1 μM to 30 μM, the maximum concentration tested) was 30 µM, the Gro-α [5] was “statistically significant decrease” and the IL-6 [5] was “statistically significant decrease”. For the same compound, the IL-12p70 [5] was “statistically significant decrease”, the IL-23 [5] was “statistically significant decrease” and the IP-10 [5] was “statistically significant decrease”. For the same compound, the MCP-1 [5] was “statistically significant decrease”, the Mip-1α [5] was “statistically significant decrease” and the TNFα [5] was “statistically significant decrease”. For the same compound, the “inhibition … (overall)” value [5] was “inhibit several pro-inflammatory cytokines; also recorded: inhibition of pro-inflammatory cytokines”.

`CN1C(C2CSC(c3ccccc3O)=N2)SC[C@@H]1C(=O)O` (stereo partly drawn) [Compound A-1, (4S)-2-(2-(2-hydroxyphenyl)-4,5-dihydrothiazol-4-yl)-3-methylthiazolidine-4-carboxylic acid] gave an Activity (Dectin-1b) of less than 30 µM.

For `CN1C(C2CSC(c3ccccc3O)=N2)SC[C@]1(C)C(=O)O` (stereo partly drawn) [Compound B-1, (4S)-2-(2-(2-hydroxyphenyl)-4,5-dihydrothiazol-4-yl)-3,4-dimethylthiazolidine-4-carboxylic acid], the Activity (Dectin-1b) was less than 30 µM and the Activity ([2]; MoDC assay) was less than 30 µM.

`C#CCCC1(CCNC(=O)[C@H]2CSC(C3CSC(c4ccccc4O)=N3)N2C)N=N1` (stereo partly drawn) [Compound C-1] gave an Activity (Dectin-1b) of less than 30 µM.

Compound `C#CCCC1(CCNC(=O)[C@H]2CS[C@H]([C@@H]3CSC(c4ccccc4O)=N3)N2C)N=N1` [Compound C-2, (4S)—N-[2-(3-but-3-ynyldiazirin-3-yl)ethyl]-2-[(4S)-2-(2-hydroxyphenyl)-4,5-dihydrothiazol-4-yl]-3-methyl-thiazolidine-4-carboxamide] has an Activity (Dectin-1b) of less than 30 µM.

`C#CCCC1(CCNC(=O)[C@H]2CS[C@@H]([C@@H]3CSC(c4ccccc4O)=N3)N2C)N=N1` [Compound C-3, (2S,4S)—N-(2-(3-(but-3-yn-1-yl)-3H-diazirin-3-yl)ethyl)-2-((S)-2-(2-hydroxyphenyl)-4,5-dihydrothiazol-4-yl)-3-methylthiazolidine-4-carboxamide] gave an Activity (Dectin-1b) of less than 30 µM.

Compound `C#CCCC1(CCOC(=O)[C@H]2CSC(C3CSC(c4ccccc4O)=N3)N2C)N=N1` (stereo partly drawn) [Compound D-1] has an Activity (Dectin-1b) of less than 30 µM.

Work on `C[C@]1(C(=O)O)CSC(C2CSC(c3ccccc3O)=N2)N1` (stereo partly drawn) [Compound E-1, (4S)-2-(2-(2-hydroxyphenyl)-4,5-dihydrothiazol-4-yl)-4-methyl-thiazolidine-4-carboxylic acid] yielded an Activity (Dectin-1b) of less than 30 µM.

In the case of `CN1C([C@H]2CSC(c3ccccc3O)=N2)SC[C@H]1C(=O)O` (stereo partly drawn) [Compound I-100, (4R)-2-((R)-2-(2-hydroxyphenyl)-4,5-dihydrothiazol-4-yl)-3-methylthiazolidine-4-carboxylic acid], the “inhibition of LPS-induced IRF reporter activity” value [3] is reported as “shows inhibition of LPS-induced IRF reporter activity”, the “statistical significance of inhibition of LPS-induced IRF reporter activity” value ([3]; tested at 1 and 10 μM (FIG. 8A)) is reported as “does not meet statistical significance” and the Gro-α ([4]; healthy human donor 14) is reported as “statistically significant decrease”. The IL-6 ([4]; healthy human donor 14) was “statistically significant decrease”, the IL-12p70 ([4]; healthy human donor 14) was “statistically significant decrease” and the IL-23 ([4]; healthy human donor 14) was “statistically significant decrease”. For the same compound, the MCP-1 ([4]; healthy human donor 14) was “statistically significant decrease”, the Mip-1α ([4]; healthy human donor 14) was “statistically significant decrease” and the TNFα ([4]; healthy human donor 14) was “statistically significant decrease”. The “inhibition … (overall)” value [4] was “inhibit several pro-inflammatory cytokines; also recorded: inhibition of pro-inflammatory cytokines”, the Gro-α [5] was “statistically significant decrease” and the IL-6 [5] was “statistically significant decrease”. For the same compound, the IL-12p70 [5] was “statistically significant decrease”, the IL-23 [5] was “statistically significant decrease” and the IP-10 [5] was “statistically significant decrease”. The MCP-1 [5] was “statistically significant decrease”, the Mip-1α [5] was “statistically significant decrease” and the TNFα [5] was “statistically significant decrease”. For the same compound, the “inhibition … (overall)” value [5] was “inhibit several pro-inflammatory cytokines; also recorded: inhibition of pro-inflammatory cytokines”.
